This is an account of results in patent US9713605B2, “Ameliorative or preventive effect of Antrodia cinnamomea in arthritis, cartilage destruction, or chondrocyte death” (Simpson Biotech Co., Ltd., priority 2011, dated 2017).

Test [1] has as its system collagen antibody-induced arthritis (CAIA) in BALB/c mice. Put plainly: Footpad thickness change in acute stage of CAIA. Type of test: in vivo. Particulars: day 10; oral once daily day 0 to day 9; mean±SEM; arthritis group 1.0446±0.0369. From the text:
(§1) Male BALB/cByJNarl (BALB/c) mice were purchased at age six weeks from National Laboratory Animal Center (Taiwan) and subsequently bred and maintained under specific pathogen-free conditions in the Laboratory Animal Center of National Defense Medical Center (Taipei, Taiwan).
(§2) An arthritogenic monoclonal antibody (mAb) cocktail and lipopolysaccharide (LPS) were purchased from Immuno-Biological Laboratories (Hamburg, Germany). Arthritis was induced by the method of Terato et al. (Terato et al., Induction of arthritis with monoclonal antibodies to collagen. J Immunol. 1992 Apr. 1; 148(7):2103-8), using an arthritogenic mAb cocktail that contained four mAbs (F10, A2, D8, and D1) in equal amounts and using LPS as adjuvant. Three clones (F10, A2, and D8) were of type IgG2a, and one clone (D1) was type IgG2b. To induce arthritis, each mouse was injected intravenously with 2 mg of anti-CII mAbs followed by an intraperitoneal injection of 50 μg (BALB/c background) LPS (Escherichia coli 0111:B4) three days later. Isotype IgG (anti-mouse IgG, 2 mg, Jackson Lab.) supplied with LPS and only LPS induction groups were applied in same condition.
(§3) Arthritis development was monitored in the four limbs using a macroscopic scoring system. Briefly, one point was given for each swollen or red toe; one point for each swollen joint (metatarsal-phalangeal joints, metacarpal-phalangeal joints, proximal interphalangeal joints, and distal interphalangeal joints); and five points for a swollen ankle (maximum score=15 per limb and 60 per mouse) (Nandakumar et al., Collagen type II (CII)-specific antibodies induce arthritis in the absence of T or B cells but the arthritis progression is enhanced by CII-reactive T cells. Arthritis Res. Ther. 6 (2004), R544-R550). The mice were examined on days 0, 3, 7, 10 and 14 after the mAb injection. The thickness of each paw was measured in a noncontact manner using a Simplified Geometry Measurement System (Advanced Design Research Technology Co., Ltd). Images of the paws of each mouse were recorded three times (Chia et al., A noncontact footpad thickness assay to evaluate rheumatoid disease. Rheumatol Int. 2010 February; 30(4):547-50). One trained researcher who was blinded to group treatments evaluated the image data independently.
(§4) Data were analyzed by the Mann-Whitney U test and were expressed as mean±SEM. A P value <0.05 was considered significant.
(§5) In each group, the subjects were given the sample once daily ([…]) since day 0 to day 9 via oral intake and the subjects was administrated before the antibody and LPS injection.

Test [2] shares this test system. Put plainly: Disease activity score (macroscopic scoring of four limbs) in acute stage of CAIA. It is filed as in vivo. Particulars: oral once daily; for disease activity score (maximum 60 per mouse): day 10, mean±SEM, arthritis group 53.71±2.763.
Excerpt: as §1, §2, §3, §4, §5

Test [3] has the same test system. Put plainly: Histopathological arthritis score of ankle joints in CAIA. Particulars: ankle joint harvested on day 10; mean±SEM; arthritis group 4.178±0.2023. Type of test: in vivo.
Excerpt: as §2
The ankle joints were fixed in 10% formalin, decalcified, trimmed, and embedded. Sections were prepared from the tissue blocks and stained with hematoxylin and eosin. Histopathological scoring was performed as described below. Ankle joints of arthritic mice were given arthritis scores of 0, 1, 2, 3, 4, and 5 to describe the arthritis according to the following criteria: 0, normal; 1, minimal infiltration of polymorphonuclear leukocytes in the periarticular area; 2, mild infiltration; 3, moderate infiltration; 4, marked infiltration; and 5, severe infiltration (Doherty, 2001. Risk factors for progression of knee osteoarthritis. Lancet 358:775-6). Three independent observers scored each slide, and the average score was used.
as §4, §5

In another test the test system is IL-1β. Put plainly: Relative expression level of IL-1β mRNA in footpad (quantitative PCR) in CAIA. It is filed as in vivo, mice. Particulars: day 10, mean±SEM, arthritis group 41.13±6.465.
Excerpt: as §2
Total RNA was isolated using the Trizol method. Footpad tissues were homogenized in Trizol lysis buffer followed by chloroform extraction (Life Technologies). The RNA was eluted with 20 μl of RNase-free water. All RNA was quantified by spectrophotometer, and the optical density (OD) 260/280 nm ratio was determined. For cDNA synthesis, 5 μg total RNA was reverse transcribed at 50° C. for 60 min using 200 units of Superscript III reverse transcriptase (Invitrogen). The primer sequence was as follows: IL1-β, forward primer (5′-[…]), reverse primer (5′-CTCGCAGCAGCACATCAAC); and GAPDH, forward primer (5′-[…]), reverse primer (5′-[…]). The SYBR Green master mix kit (Bio-Rad) was used for all reactions with real-time PCR. Briefly, PCR was performed as follows: 94° C. for 2 min followed by 40 cycles of denaturation; annealing; and extension at 94° C. for 15 s, 64° C. for 30 s, and 72° C. for 45 s; and final extension at 72° C. for 10 min. The PCR reaction was performed in triplicate for each sample for all the products and for the GAPDH control. Ratios for each product relative to GAPDH mRNA were calculated for each sample. The data presented are expressed as the fold-increase or fold-decrease in mRNA level. For all real-time PCR assays, the products were run out on a gel to confirm the presence of a single band.
as §4, §5

The subject of test [4] is cartilage destruction in ankle joints of arthritic mice. Put plainly: Histopathological cartilage destruction score of ankle joints in CAIA. Type of test: in vivo. Particulars: ankle joint harvested on day 10; mean±SD; arthritis group 2.063±0.776.
Excerpt: as §2
The ankle joints were fixed in 10% formalin, decalcified, trimmed, and embedded. Sections were prepared from the tissue blocks and stained with hematoxylin and eosin. Histopathological scoring was performed as described below. […] Two independent observers scored each slide, and the average score was used.
(§6) Data were analyzed by the t test and are expressed as mean±SD. […]

Test [5] concerns chondrocyte death in ankle joints of arthritic mice. Put plainly: Histopathological chondrocyte death score of ankle joints in CAIA. It is filed as in vivo. Particulars: ankle joint harvested on day 10; mean±SD; arthritis group 1.929±0.450.
Excerpt: as §2, with “Isotype IgG (anti-mouse IgG, 2 mg, Jackson Lab.) supplied with LPS and only LPS induction groups were applied in same condition.” left out
Ankle joints of arthritic mice were given chondrocyte death scores of 0, 1, 2, and 3 to describe the chondrocyte death according to the following criteria: 0, normal (FIG. 7A); 1, mild chondrocyte death (around less than ⅓ chondrocyte death in cartilage of all sections, FIGS. 7B, 7C); 2, moderate chondrocyte death (between ⅓ to ⅔ area chondrocyte death in the cartilage, FIG. 7D); 3, severe chondrocyte death (more than ⅔ chondrocyte death in the cartilage, FIG. 7E). Two independent observers scored each slide, and the average score was used.
as §6

Structures are written as SMILES.

`CC(C)=CCOc1ccc(C2=C(CC(C)C)C(=O)N(O)C2=O)cc1` [C group, 3-isobutyl-4-[4-(3-methyl-2-butenyloxy)phenyl]-1H-pyrrol-1-ol-2,5-dione]: the “footpad thickness (average increase compared to baseline)” value in test [1] is reported as 0.8605±0.098 mm. Also, the “disease activity score (maximum 60 per mouse)” value in test [2] is on record as 47.718±3.581. In addition, the “arthritis score (histopathological, 0-5)” value in test [3] is 3.25±0.421. In the test on IL-1β, the “relative expression levels of IL-1β (relative to GAPDH mRNA)” value (from here on “relative expression levels of IL-1β”) is reported as 20.714±4.751. Besides, the “cartilage destruction score (0-3)” value in test [4] is recorded as 1.000±0.467. The “chondrocyte death score (0-3)” value in test [5] was determined as 0.58±0.555.
Take `CC(C)=CCOc1ccc(C2=C(CC(C)C)C(=O)OC2=O)cc1` [A group, 3-isobutyl-4-[4-(3-methyl-2-butenyloxy)phenyl]furan-2,5-dione]: in test [1], the “footpad thickness (average increase compared to baseline)” value is listed as 0.840±0.139 mm. For the same compound, the “disease activity score (maximum 60 per mouse)” value in test [2] worked out at 46.0±2.537. In test [3], the “arthritis score (histopathological, 0-5)” value stood at 2.093±0.541. Moreover, the “relative expression levels of IL-1β” value with IL-1β is given as 39.61±3.849.
Regarding `CC(C)=CCOc1ccc(C2=C(CC(C)C)C(=O)NC2=O)cc1` [B group, 3-isobutyl-4-[4-(3-methyl-2-butenyloxy)phenyl]-1H-pyrrol-2,5-dione], the “footpad thickness (average increase compared to baseline)” value in test [1] worked out at 0.837±0.177 mm. Also, the “disease activity score (maximum 60 per mouse)” value in test [2] turned out to be 45.58±4.818. The “relative expression levels of IL-1β” value in the test on IL-1β amounted to 16.873±4.82.
Regarding `CC(C)=CCOc1ccc([C@H]2C(=O)N(O)C(=O)[C@@H]2CC(C)C)cc1` (relative stereo) [D group, 3R*,4S*-1-hydroxy-3-isobutyl-4-[4-(3-methyl-2-butenyloxy)phenyl]pyrrolidine-2,5-dione], in test [1], the “footpad thickness (average increase compared to baseline)” value is on record as 0.729±0.114 mm. Further, the “disease activity score, difference versus arthritis group” value in test [2] (day 7) is “significant difference”. In test [2], the “disease activity score (maximum 60 per mouse)” value is reported as 39.687±5.238. Also, the “arthritis score (histopathological, 0-5)” value in test [3] amounted to 3.458±0.559. For the same compound, in the test with IL-1β, the “relative expression levels of IL-1β” value amounted to 10.141±2.765. The “cartilage destruction score (0-3)” value in test [4] was found to be 1.167±0.144. For the same compound, the “chondrocyte death score (0-3)” value in test [5] came out at 1.042±0.439.
